Assays:
MET = MET biochemical kinase assay; parameters: species or system human; concentration or dose not given beside the values
Outline: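 Immunocaptured MET autophosphorylation, read colorimetrically (TMB) via HRP anti-phosphotyrosine antibody. Kinase reaction initiated with buffer containing ATP and divalent metals after compound addition to plate-bound receptor from lysates.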

EGFR = target: T1, EGFR (Homo sapiens, UniProt P00533); assay: EGFR ELISA assay (in vitro kinase activity, EGFR captured from A431 cell lysate); format: biochemical; parameters: concentration or dose not given beside the values
T1 construct: Add 7 ug A431 cell lysate per well (EGFR source); endogenous in cells; host or cells: A431
T1 sequence (P00533 25-1210): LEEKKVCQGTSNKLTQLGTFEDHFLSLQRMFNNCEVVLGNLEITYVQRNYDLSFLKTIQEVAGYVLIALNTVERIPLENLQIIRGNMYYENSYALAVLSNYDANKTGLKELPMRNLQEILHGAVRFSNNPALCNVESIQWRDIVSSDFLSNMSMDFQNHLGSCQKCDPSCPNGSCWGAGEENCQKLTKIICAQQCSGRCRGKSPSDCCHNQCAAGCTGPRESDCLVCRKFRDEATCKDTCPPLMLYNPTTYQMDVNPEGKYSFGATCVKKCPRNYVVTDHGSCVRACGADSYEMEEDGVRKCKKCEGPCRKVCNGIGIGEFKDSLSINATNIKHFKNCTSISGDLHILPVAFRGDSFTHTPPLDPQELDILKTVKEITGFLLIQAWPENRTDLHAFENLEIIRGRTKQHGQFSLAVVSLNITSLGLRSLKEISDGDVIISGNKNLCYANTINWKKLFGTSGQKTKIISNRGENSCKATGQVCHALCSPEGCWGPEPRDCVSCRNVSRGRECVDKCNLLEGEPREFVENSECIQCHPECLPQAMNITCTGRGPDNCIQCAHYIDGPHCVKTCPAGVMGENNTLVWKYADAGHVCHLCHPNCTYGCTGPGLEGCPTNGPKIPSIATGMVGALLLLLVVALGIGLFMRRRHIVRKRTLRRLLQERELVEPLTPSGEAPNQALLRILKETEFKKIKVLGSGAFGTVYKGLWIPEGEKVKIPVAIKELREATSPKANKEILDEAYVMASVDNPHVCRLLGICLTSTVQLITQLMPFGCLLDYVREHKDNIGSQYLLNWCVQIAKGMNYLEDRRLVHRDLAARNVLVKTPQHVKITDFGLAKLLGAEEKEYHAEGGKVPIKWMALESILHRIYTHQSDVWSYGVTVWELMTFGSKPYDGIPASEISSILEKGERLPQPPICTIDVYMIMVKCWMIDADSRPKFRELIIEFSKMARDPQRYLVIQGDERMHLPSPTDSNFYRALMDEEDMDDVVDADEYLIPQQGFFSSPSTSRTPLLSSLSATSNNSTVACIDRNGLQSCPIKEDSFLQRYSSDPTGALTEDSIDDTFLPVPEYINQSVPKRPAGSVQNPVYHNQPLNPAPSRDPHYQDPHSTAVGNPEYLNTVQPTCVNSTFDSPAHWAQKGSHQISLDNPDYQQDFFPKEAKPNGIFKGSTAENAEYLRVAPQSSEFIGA
Outline: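 EGFR from A431 lysate was captured on plates coated with anti-EGFR antibody. Compounds were added 30 min before a 5 min phosphorylation with 3 µM ATP/5 mM MnCl2, which was stopped with 20 mM EDTA. Phosphotyrosine was detected with rabbit anti-phosphotyrosine, then a peroxidase-conjugated secondary and ABTS/H2O2, read at 410 nm.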

Row | SMILES | Met Kinase % Inhibition (MET) [%] | Biochem EGFR %Inhibition (EGFR) [%]
1 | O=C1Nc2c(Br)cc(Br)cc2C1=Cc1ccc(Br)cc1 [10717/A08] | 21.7 | 39.1
2 | COC(=O)c1[nH]c(C)c(C=C2C(=O)Nc3ccc(I)cc32)c1C(=O)OC [10718/B07] | 53.7 | 9.9
3 | O=C1Nc2ccc(I)cc2C1=Cc1ccc(Cl)c([N+](=O)[O-])c1 [10718/B08] | 63.4 | 28.9
4 | Cc1c(O)ccc(C=C2C(=O)Nc3ccc(I)cc32)c1O [10718/B09] | 52.9 | -0.8
5 | O=C1Nc2ccc(I)cc2C1=Cc1ccco1 [10718/B10] | 83.6 | 13.7
6 | O=C1Nc2ccc(I)cc2C1=Cc1ccc([N+](=O)[O-])o1 [10718/B11] | 69.6 | 30.3
7 | CCOC(=O)c1c(C)[nH]c(C=C2C(=O)Nc3ccc(Br)c(C)c32)c1C [10718/C02] | 29.6 | -21.9
8 | COc1cc(Br)c(O)c(C=C2C(=O)Nc3ccc(Br)c(C)c32)c1 [10718/C03] | 95.7 | 41.3
9 | Cc1c(Br)ccc2c1C(=Cc1ccc3ccccc3c1O)C(=O)N2 [10718/C04] | 93.1 | 14.8
10 | O=C1Nc2ccc(S(=O)(=O)Nc3ccc(C(F)(F)F)cc3)cc2C1=Cc1cccnc1 [10729/E08] | 73.7 | 40.1
11 | O=C1Nc2ccc(S(=O)(=O)Nc3ccc(C(F)(F)F)cc3)cc2C1=Cc1ccncc1 [10729/E09] | 85.0 | 29.6
12 | O=C1Nc2ccc(S(=O)(=O)Nc3ccc(C(F)(F)F)cc3)cc2C1=Cc1ccc(N2CCCC2)cc1 [10729/E10] | 7.5 | 50.3
13 | O=C1Nc2ccc(S(=O)(=O)Nc3ccc(C(F)(F)F)cc3)cc2C1=CC1C=CCCC1 (centres unmarked) [10729/E11] | 50.8 | 25.7
14 | COc1ccc2ccccc2c1C=C1C(=O)Nc2ccc(CCCl)cc21 [10729/G02] | 31.3 | -4.8
15 | COc1ccc(C=C2C(=O)Nc3ccc(CCCl)cc32)c2ccccc12 [10729/G03] | 20.1 | 14.6
16 | CSc1ccc(C=C2C(=O)Nc3ccc(CCCl)cc32)cc1 [10729/G04] | 18.2 | 52.9
17 | Cc1ccsc1C=C1C(=O)Nc2ccc(CCCl)cc21 [10729/G05] | 22.6 | 4.4
18 | O=C1Nc2ccc(CCCl)cc2C1=Cc1cccc(Oc2ccccc2)c1 [10729/G06] | 26.0 | 15.2
19 | O=C1Nc2ccc(CCCl)cc2C1=Cc1ccccn1 [10729/G07] | 38.2 | -0.8
20 | O=C1Nc2ccc(CCCl)cc2C1=Cc1cccnc1 [10729/G08] | 39.9 | 6.0
21 | O=C1Nc2ccc(CCCl)cc2C1=Cc1ccncc1 [10729/G09] | 49.6 | 20.8

Row | SMILES | Met Kinase % Inhibition (MET) [%] | Biochem EGFR %Inhibition (EGFR) [%]
22 | O=C1Nc2ccc(CCCl)cc2C1=Cc1ccc(N2CCCC2)cc1 [10729/G10] | 26.7 | 60.1
23 | O=C1Nc2ccc(CCCl)cc2C1=CC1C=CCCC1 (centres unmarked) [10729/G11] | 15.4 | 23.4
24 | COc1ccc(C=C2C(=O)Nc3c(Br)cc(Br)cc32)c(OC)c1OC [10730/A02] | 39.5 | 27.5
25 | COc1cc(OC)c(OC)cc1C=C1C(=O)Nc2c(Br)cc(Br)cc21 [10730/A03] | 62.3 | 34.4
26 | COc1cc(C=C2C(=O)Nc3c(Br)cc(Br)cc32)cc(OC)c1OC [10730/A04] | 70.6 | 37.2
27 | CC(=O)n1cc(C=C2C(=O)Nc3c(Br)cc(Br)cc32)c2ccccc21 [10730/A05] | 42.7 | 18.6
28 | O=C1Nc2c(Br)cc(Br)cc2C1=Cc1coc2ccc(Cl)cc2c1=O [10730/A06] | 61.0 | 6.7
29 | O=C1Nc2c(Br)cc(Br)cc2C1=Cc1ccc(-c2ccccc2Cl)o1 [10730/A07] | 55.4 | 10.4
30 | O=C1Nc2c(Br)cc(Br)cc2C1=Cc1cc2ccccc2nc1Cl [10730/A08] | 69.0 | 10.4
31 | O=C1Nc2c(Br)cc(Br)cc2C1=Cc1coc2c(Br)cc(Br)cc2c1=O [10730/A09] | 69.5 | 1.1
32 | COC1CC(C=C2C(=O)Nc3c(Br)cc(Br)cc32)C(OC)O1 (centres unmarked) [10730/A10] | 68.7 | 56.1
33 | Cc1cc(C=C2C(=O)Nc3c(Br)cc(Br)cc32)oc1C [10730/A11] | 91.0 | 56.4
34 | COc1ccc(C=C2C(=O)Nc3ccc(I)cc32)c(OC)c1OC [10730/B02] | 66.3 | 10.4
35 | COc1cc(OC)c(OC)cc1C=C1C(=O)Nc2ccc(I)cc21 [10730/B03] | 78.3 | 46.8
36 | COc1cc(C=C2C(=O)Nc3ccc(I)cc32)cc(OC)c1OC [10730/B04] | 73.2 | 36.5
37 | CC(=O)n1cc(C=C2C(=O)Nc3ccc(I)cc32)c2ccccc21 [10730/B05] | 71.1 | 8.5
38 | O=C1Nc2ccc(I)cc2C1=Cc1coc2ccc(Cl)cc2c1=O [10730/B06] | 71.3 | 25.0
39 | O=C1Nc2ccc(I)cc2C1=Cc1ccc(-c2ccccc2Cl)o1 [10730/B07] | 63.1 | 57.1
40 | O=C1Nc2ccc(I)cc2C1=Cc1cc2ccccc2nc1Cl [10730/B08] | 91.8 | 48.4
41 | O=C1Nc2ccc(I)cc2C1=Cc1coc2c(Br)cc(Br)cc2c1=O [10730/B09] | 70.6 | 14.2
42 | COC1CC(C=C2C(=O)Nc3ccc(I)cc32)C(OC)O1 (centres unmarked) [10730/B10] | 69.5 | 15.8

Row | SMILES | Met Kinase % Inhibition (MET) [%] | Biochem EGFR %Inhibition (EGFR) [%]
43 | Cc1cc(C=C2C(=O)Nc3ccc(I)cc32)oc1C [10730/B11] | 81.7 | 70.2
44 | COc1ccc(C=C2C(=O)Nc3ccc(Br)c(C)c32)c(OC)c1OC [10730/C02] | 31.2 | 2.7
45 | COc1cc(OC)c(OC)cc1C=C1C(=O)Nc2ccc(Br)c(C)c21 [10730/C03] | 43.2 | -12.1
46 | COc1cc(C=C2C(=O)Nc3ccc(Br)c(C)c32)cc(OC)c1OC [10730/C04] | 43.2 | 0.1
47 | CC(=O)n1cc(C=C2C(=O)Nc3ccc(Br)c(C)c32)c2ccccc21 [10730/C05] | 46.1 | -9.8
48 | Cc1c(Br)ccc2c1C(=Cc1coc3ccc(Cl)cc3c1=O)C(=O)N2 [10730/C06] | 34.7 | 8.5
49 | Cc1c(Br)ccc2c1C(=Cc1ccc(-c3ccccc3Cl)o1)C(=O)N2 [10730/C07] | 37.4 | 20.3
50 | Cc1c(Br)ccc2c1C(=Cc1cc3ccccc3nc1Cl)C(=O)N2 [10730/C08] | 56.5 | 24.3
51 | Cc1c(Br)ccc2c1C(=Cc1coc3c(Br)cc(Br)cc3c1=O)C(=O)N2 [10730/C09] | 42.9 | 28.2
52 | COC1CC(C=C2C(=O)Nc3ccc(Br)c(C)c32)C(OC)O1 (centres unmarked) [10730/C10] | 40.3 | 20.5
53 | Cc1cc(C=C2C(=O)Nc3ccc(Br)c(C)c32)oc1C [10730/C11] | 66.6 | 38.4
54 | CNS(=O)(=O)c1ccc2c(c1)C(=Cc1ccc(OC)c(OC)c1OC)C(=O)N2 [10730/D02] | 34.7 | 18.6
55 | CNS(=O)(=O)c1ccc2c(c1)C(=Cc1cc(OC)c(OC)cc1OC)C(=O)N2 [10730/D03] | 34.2 | 9.9
56 | CNS(=O)(=O)c1ccc2c(c1)C(=Cc1cc(OC)c(OC)c(OC)c1)C(=O)N2 [10730/D04] | 33.6 | 10.4
57 | CNS(=O)(=O)c1ccc2c(c1)C(=Cc1cn(C(C)=O)c3ccccc13)C(=O)N2 [10730/D05] | 38.1 | 12.6
58 | CNS(=O)(=O)c1ccc2c(c1)C(=Cc1coc3ccc(Cl)cc3c1=O)C(=O)N2 [10730/D06] | 55.9 | 35.3
59 | CNS(=O)(=O)c1ccc2c(c1)C(=Cc1ccc(-c3ccccc3Cl)o1)C(=O)N2 [10730/D07] | 52.5 | 43.0
60 | CNS(=O)(=O)c1ccc2c(c1)C(=Cc1cc3ccccc3nc1Cl)C(=O)N2 [10730/D08] | -13.6 | 44.9
61 | CNS(=O)(=O)c1ccc2c(c1)C(=Cc1coc3c(Br)cc(Br)cc3c1=O)C(=O)N2 [10730/D09] | 59.1 | 45.1
